Experimental data from publication PMC12024213, “Mechanism Insight of Cell Death Signaling by Thymol Derivatives on Trypanosomatidae Protozoan Parasites” (Antibiotics, 2025).
Like-named read-outs stand apart in the source and are kept apart here.

Tests used:
T. cruzi epimastigotes [1] = test: Mitochondrial membrane potential, JC-1, T. cruzi; assay type: cell-based, Trypanosoma cruzi; settings: JC-1 red/green ratio, IC90, 24 h
Experimental: The measurement of mitochondrial membrane potential was carried out using the JC-1 assay. JC-1 is a mitochondria-specific stain whose fluorescence emission depends on the mitochondrial membrane potential. In healthy mitochondria, JC-1 aggregates and emits red fluorescence, whereas in unhealthy mitochondria, it remains in monomeric form and emits green fluorescence. […] The assay was performed according to the manufacturer’s instructions, as detailed in a previous study.

L. amazonensis [2] = test: Intracellular ROS, CellROX Deep Red, L. amazonensis; assay type: cell-based, Leishmania amazonensis; settings: 24 h incubation
Experimental: (§1) The measure of reactive oxygen species (ROS) was measured after treatment of 24 h using CellROX® Deep Red fluorescent probe (Invitrogen, Madrid, Spain). The mitochondria constitute an essential organelle to neutralize the reactive oxygen species; the malfunction of this organelle would generate an imbalance between the antioxidants and the reactive oxygen.

L. amazonensis [3] = test: Atomic force microscopy, L. amazonensis; assay type: cell-based, Leishmania amazonensis; settings: IC90, 12 and 24 h
Experimental: (§2) […] After incubation, cells were washed twice with PBS, and 10 µL of a 10^5 cells/mL suspension was smeared onto glass slides. Prior to AFM analysis, samples were dried for 10 min. AFM topographic images were acquired in Peak Force mode using a multimode microscope equipped with a Nanoscope V control unit (Bruker). Scans were performed at rates of 0.5–1.2 Hz, employing FESP tips (50–100 kHz, 1–5 N/m) from Bruker. The damage caused by derivative 9 in both parasites was assessed by recording images at scales ranging from 100 µm × 100 µm to 0.6 µm × 0.6 µm, with a resolution of 512 points per line.

T. cruzi [4] = test: Intracellular ROS, CellROX Deep Red, T. cruzi; assay type: cell-based, Trypanosoma cruzi; settings: 24 h incubation
Experimental: as §1

T. cruzi [5] = test: Atomic force microscopy, T. cruzi; assay type: cell-based, Trypanosoma cruzi; settings: IC90, 12 and 24 h
Experimental: as §2

[6] = tested on: L. amazonensis promastigotes; test: alamarBlue assay on L. amazonensis promastigotes; assay type: cell-based, Leishmania amazonensis; settings: Leishmania amazonensis
Experimental: (§3) The assay was conducted using the alamarBlue® method as previously described. Briefly, promastigotes of L. amazonensis were grown at 26 °C in Schneider’s medium (US Biological, Life sciences) and supplemented with 10% heat-inactivated fetal bovine serum and 0.04% of sodium bicarbonate. In a 96-well microtiter plates (Corning™, Corning, NY, USA) a serial dilutions of thymol derivatives were first prepared, and later, 10^6 parasites/mL were added into each well. Subsequently, 10% of alamarBlue® was added to the entire plate. The plates were incubated for 72 h at 26 °C.
(§4) Cytotoxicity effect of the tested derivatives was conducted using macrophages of the murine cell line J774.A1 (American Type Culture Collection #TIB-67, city, country), as previously described. The cells were maintained in DMEM at 37 °C in a 5% CO2 humidified incubator. All the plates containing alamarBlue® were analyzed using a plate reader EnSpire Multimode Plate Reader® at excitation and emission wavelengths of 570 and 585 nm, respectively (PerkinElmer, ThermoFisher Scientific, Madrid, Spain). The IC50 (concentrations able to inhibit 50% of parasites), IC90 (concentrations able to inhibit 90% of parasites), and CC50 (concentration able to inhibit 50% of murine macrophages) values were determined for each compound by nonlinear regression using GraphPad software.

[7] = alamarBlue assay on L. amazonensis promastigotes; assay type: cell-based, Leishmania amazonensis; settings: mouse; CC50 J774.A1 / IC50 L. amazonensis promastigotes; read-out: Selectivity Leishmania SI (CC50/IC50)
Experimental: as §3, §4

T. cruzi epimastigotes [8] = test: Monodansylcadaverine staining of autophagic vacuoles, T. cruzi; assay type: cell-based, Trypanosoma cruzi; settings: 24 h treatment, confocal microscopy
Experimental: The present method consists of staining the autophagic vacuoles with the treated cells by ion trapping and specific interactions with the vesicle membrane lipids. The experiment was carried out by following the manufacturer’s recommendations, and as described previously. After 24 h of incubation, cells were stained with MDC reagent at 5 mM and incubated at 26 °C for 30 min in µ-Slide 8 (Ibidi, Gräfelfing, Germany). Later, the cells were washed with PBS and observed with Leica DMI 4000 B.

T. cruzi [9] = tested on: T. cruzi
Experimental: (§5) The effect of derivatives 9 and 10 to modulate cell features was studied in the tested protozoa parasites, using various specific commercial kits. Parasite cells were incubated with the derivative at the previously calculated IC90 for 24 h. Subsequently, cells were washed and submitted to different treatments as mentioned by the manufacturer’s instructions. In all the assays, a plate reader EnSpire Multimode Plate Reader® and/or an image base system fluorescence microscope EVOS M5000 were used for the fluorescence intensity quantification. For each protocol, images of representative population cells were obtained using an inverted confocal microscope Leica DMI 4000 B with LAS X software, and Leica HC PL APO 63×/1.40 OIL CS2 Objective (Barcelona, Spain). The SYTOX™ Green (Life Technologies, Madrid, Spain), a cell impermeable DNA binding stain, was used to evaluate the membrane permeability and integrity. The assay was conducted as detailed in the manufacture instructions, and as previously described.

L. amazonensis [10] = tested on: L. amazonensis
Experimental: as §5

[11] = 72 h, promastigotes, alamarBlue, 72 h at 26 °C, mean ± SD, triplicates, read-out: L. amazonensis Promastigote IC50

| SMILES | decrease of mitochondrial membrane potential (ΔΨm) (T. cruzi epimastigotes [1]) [%] | intracellular ROS (CellROX Deep Red) (L. amazonensis [2]) | morphological effects (AFM) (L. amazonensis [3]) | intracellular ROS (CellROX Deep Red) (T. cruzi [4]) | morphological effects (AFM) (T. cruzi [5]) | IC50 [6, 11] [µM] | IC50 ([6]; abstract, stage not stated, read-out: IC50 against L. amazonensis (abstract)) [µM] | selectivity ratio [7] | autophagic vacuoles (MDC staining) (T. cruzi epimastigotes [8]) | plasma membrane permeability (SYTOX Green) (T. cruzi [9]) | plasma membrane permeability (SYTOX Green) (L. amazonensis [10]) |
| --- | --- | --- | --- | --- | --- | --- | --- | --- | --- | --- | --- |
| COc1ccc(C(=O)Oc2cc(C)ccc2C(C)C)cc1 [Derivative 9, thymyl anysoate] | 70 | induced oxidative stress | induced the formation of giant vacuoles in the cytoplasm | induced oxidative stress | induced the formation of giant vacuoles in the cytoplasm | 29.1 ± 3.8 | 22.9 | > 10.3 | Induction of autophagy | – | – |
| Cc1ccc(C(C)C)c(OC(=O)c2ccccn2)c1 [Derivative 10, thymyl picolinate] | – | – | – | – | – | 34.4 ± 2.3 | – | 7.4 | Induction of autophagy | greater damage to membrane permeability | greater damage to membrane permeability |
